Values of other authors as cited in patent US20220313772A1, “Method of Treating a Child with Central Precocious Puberty using an Extended Release Composition” (Tolmar International Limited, priority 2019, published 2022).

Details: in vivo

CCNC(=O)[C@@H]1CCCN1C(=O)[C@H](CCCNC(=N)N)NC(=O)[C@H](CC(C)C)NC(=O)[C@@H](CC(C)C)NC(=O)[C@H](Cc1ccc(O)cc1)NC(=O)[C@H](CO)NC(=O)[C@H](Cc1c[nH]c2ccccc12)NC(=O)[C@H](Cc1c[nH]cn1)NC(=O)[C@@H]1CCC(=O)N1 [Leuprolide acetate, leuprolide acetate]
adverse effects at high dose: no adverse effects differing from those observed with a 1 mg/day dose
